Experimental data as given in paper PMC12053792 (Journal of Peptide Science, 2025).
“Also recorded” adds a separate entry of the source.

How the values were obtained:
[1] = SAXS and cryo‐TEM (fibril formation); assay type: physicochemical; conditions: 1 wt% aqueous solution
Experimental: Interrogation of the structure of peptide‐adjuvant constructs 2 and 3 was performed using CD spectroscopy as well as modelling studies (PEP‐FOLD). […] Fibril formation by α‐helical peptides is typically observed due to lateral association of coiled‐coils. Here, this may play a role, although lateral interaction of the hydrophobic alkyl chains is likely to be the essential driver for the fibril formation. The fibril core radius 14.0–18.5 Å from SAXS (Table S1) is consistent with the length of an extended Pam lipid chain. […]
windows, with 0.01 mm path length. Spectra were measured using a 0.5 nm step, 1 nm bandwidth and 1 s collection time per step, and a range of 180 to 280 nm. […]
The residue of the calculation was chosen to oscillate around the average, to avoid artifacts in the smoothed curve. CD data, measured in mdeg, was normalized to molar ellipticity using the molar concentration of the sample and the cell path length.
Cryogenic-TEM (Cryo-TEM) Imaging was carried out using a field emission cryo-electron microscope (JEOL JEM-3200FSC), operating at 200 kV. […] The micrographs were recorded using a Gatan Ultrascan 4000 CCD camera. […] Vitrified specimens were prepared using an automated FEI Vitrobot device using Quantifoil 3.5/1 holey carbon copper 200 mesh grids with a hole size of 3.5 µm and […]. […]

HHDII/DR1 mice = assay: In vivo toxicity in HHDII/DR1 mice; set-up: species or system HHDII/DR1 (HLA‐A2 transgenic) mice; conditions: 10 nmol in 50 μL s.c., days 1, 8 and 15, n = 3
Experimental: (§1) Animal experiments were carried out with ethical approval from University of Nottingham ethical review board and under a Home Office approved project license (PP2706800). Mice were dosed with 10 nmol of material in 50 μL at Days 1, 8 and 15 (n = 3). IFNϒ ELISpot assays on splenocytes were conducted on termination at Day 21. General methods for the ELISpot can be found in the Supporting Information. Preparation of media and buffers and steps performed on Days 1 and 2 post‐termination; the ELISpot assays were performed using a laminar flow cabinet and aseptic techniques to ensure the sterility of media, reagents and plates at stages before development of the ELISpot. Development of the ELISpot on Day 4 posttermination was performed on the laboratory bench.
(§2) In Vivo Evaluation (ELISpot Assay)
(§3) Animal experiments were carried out with ethical approval from University of Nottingham ethical review boards and under a Home Office approved project license (PP2706800). HLA-HHDII/DR1 (HLA-A2.1+/+ HLADR1+/+, Pasteur Institute) transgenic mice knocked out for murine MHC-I and II and expressing chimeric HLA-A2 (HHDII) and human HLA-DR1 or Balb/c mice (Charles River) aged 6-12 weeks were used. Mice were vaccinated with 10 ηmol of each immunogen at each timepoint. Doses were delivered subcutaneously (s.c.) in 50 µl volume on days 1, 8 and 15. No anaesthesia was used for injections. […]

IFNγ‐secreting T‐cells = assay: In vivo immunisation, IFNγ ELISpot on splenocytes, HHDII/DR1 mice; set-up: species or system HHDII/DR1 (HLA‐A2 transgenic) mice
Experimental: as §1, §2
as §3, with “injections. Responses were screened on day 21 after euthanasia by cervical dislocation. Preparation of media and buffers and steps performed on days 1 and 2 of the ELISpot assay were performed using a laminar flow cabinet and aseptic techniques to ensure the sterility of media, reagents and plates at stages before development of the ELISpot. Development of the ELISpot on day 4 can be performed on the” for “injections.”
The following tables summarise the details of the vaccine candidates and vaccination procedure including (dose time points):
Table S5. Summary of the injection schedule (including dose concentration and number) for Pam2Cys-SK4-NY-ESO-1157-165 (2) candidate using HHDII/DR1 Tg mice. […]

## 3: vaccine‐adjuvant construct Pam2Cys‐SK4‐NY‐ESO‐1_157‐165 [compound 3]
[1]
  Fibril formation: also formed fibrils; also recorded: indicate the formation of fibrils
HHDII/DR1 mice
  In vivo toxicity outcome: non‐toxic
IFNγ‐secreting T‐cells; healthy HLA‐A2 transgenic (HHDII/DR1) mice, 10 nmol in 50 μL s.c., days 1, 8, 15, n = 3, day 21, versus media‐only negative control
  Immune response (in words): specific but weak responses; also recorded: weakly immunogenic; also recorded: shows activity as a self‐adjuvanting vaccine candidate
IFNγ‐secreting T‐cells; restimulated with NY‐ESO‐1_87‐111 and NY‐ESO‐1_119‐143
  ANOVA significance (in words): not significant
IFNγ‐secreting T‐cells; restimulated with NY‐ESO‐1_157‐165
  ANOVA significance (in words): significant effect
